Experimental data taken from US11497713B2, “Combination taxoid nanoemulsion with immunotherapy in cancer” (TargaGenix, Inc., priority 2017, dated 2022).
Where two headings read alike, the source gives them in different places.

How the values were obtained:
[1] = test system: PD-L1, PD-1, CD4, CD8 and Arginase-1 expression in tumor tissues; assay: RT-PCR and western blotting of Panc02 tumor tissues; type: in vivo, mouse; settings: anti-PD-L1 combination versus IgG treated group
Procedure: Cells and tumor tissues were washed twice with phosphate-buffered saline (PBS) and lysed in ice-cold lysis buffer containing 2% proteinase inhibitor (both from Sigma-Aldrich Co., St. Louis, Mo., USA). Cells were retrieved with a cell scraper, stirred and incubated on ice for 15 minutes. Mice tumor tissues were sonicated for 10 seconds on ice with sonicator. Lysates were centrifuged, supernatants were collected, and protein concentration was determined using the Bio-Rad protein assay (Bio-Rad Laboratories, Hercules, Calif., USA). The supernatants were diluted with lysis buffer to create equal concentrations of protein. […] Immunocomplexes were detected using western blotting (ECL Prime; GE Healthcare UK Ltd., Buckinghamshire, UK).
The expression level of PD-L1 and mRNA for other proteins was determined using real-time PCR as previously described. […] Relative quantifications of gene expression with qRT-PCR data were calculated relative to murine β-actin.
To investigate how the anticancer agents, induce PD-L1, PD-1, CD4, CD8 and Arginase-1 mRNA expression in pancreatic cancer tumor tissues, the mRNA level of PD-L1, PD-1, CD4, CD8, and Arginase-1 either alone or in combination of immune checkpoint inhibitor was determined by RT-PCR. […]

PDAC = settings: cited from earlier work
[2] = test system: human PANC-1 pancreatic tumor xenograft; assay: Human PANC-1 pancreatic tumor xenograft, schedule comparison (FIG. 3); type: in vivo, RPCI SCID mice
Description: In FIG. 3, this experiment compared a q7d×3 with a q3d×3 schedule for paclitaxel and DHA-SBT-1214 using a human PANC-1 pancreatic tumor xenograft in RPCI SCID mice. […] Paclitaxel was only weakly effective, showing tumor growth delays of 18 days with q7d×3 schedule and 13 days with q3d×3 schedule and no CRs.

prostate CD133+ cells = assay: Prostate cancer stem cells under stemness-promoting culture conditions; type: cell-based
Procedure: In studies with DHA-SBT-1214 and prostate cancer stem cells, Applicants previously determined that low concentrations of DHA-SBT-1214 (0.1-1 μM) induced up to 80-90% death of the highly tumorigenic and highly drug-resistant prostate CD133^+ cells maintained under stemness-promoting culture conditions.

[3] = test system: highly drug resistant tumor xenografts; assay: Highly drug resistant tumor xenografts in mice; settings: mouse, in vivo
[4] = test system: drug-resistant cell lines expressing MDR phenotypes; settings: cited from earlier work
[5] = biological target: P-glycoprotein (P-gp) transporter (Homo sapiens, UniProt P08183); settings: cited from earlier work
[6] = Formulation concentration, droplet properties and storage stability
Description: The droplet size is consistently less than 200 nm in diameter allowing one to filter sterilize the final formulation. The zeta potential of the nanoemulsion is in the range of negative 23 mV to 33 m.

Sequence of P-glycoprotein (P-gp) transporter (P08183 whole entry): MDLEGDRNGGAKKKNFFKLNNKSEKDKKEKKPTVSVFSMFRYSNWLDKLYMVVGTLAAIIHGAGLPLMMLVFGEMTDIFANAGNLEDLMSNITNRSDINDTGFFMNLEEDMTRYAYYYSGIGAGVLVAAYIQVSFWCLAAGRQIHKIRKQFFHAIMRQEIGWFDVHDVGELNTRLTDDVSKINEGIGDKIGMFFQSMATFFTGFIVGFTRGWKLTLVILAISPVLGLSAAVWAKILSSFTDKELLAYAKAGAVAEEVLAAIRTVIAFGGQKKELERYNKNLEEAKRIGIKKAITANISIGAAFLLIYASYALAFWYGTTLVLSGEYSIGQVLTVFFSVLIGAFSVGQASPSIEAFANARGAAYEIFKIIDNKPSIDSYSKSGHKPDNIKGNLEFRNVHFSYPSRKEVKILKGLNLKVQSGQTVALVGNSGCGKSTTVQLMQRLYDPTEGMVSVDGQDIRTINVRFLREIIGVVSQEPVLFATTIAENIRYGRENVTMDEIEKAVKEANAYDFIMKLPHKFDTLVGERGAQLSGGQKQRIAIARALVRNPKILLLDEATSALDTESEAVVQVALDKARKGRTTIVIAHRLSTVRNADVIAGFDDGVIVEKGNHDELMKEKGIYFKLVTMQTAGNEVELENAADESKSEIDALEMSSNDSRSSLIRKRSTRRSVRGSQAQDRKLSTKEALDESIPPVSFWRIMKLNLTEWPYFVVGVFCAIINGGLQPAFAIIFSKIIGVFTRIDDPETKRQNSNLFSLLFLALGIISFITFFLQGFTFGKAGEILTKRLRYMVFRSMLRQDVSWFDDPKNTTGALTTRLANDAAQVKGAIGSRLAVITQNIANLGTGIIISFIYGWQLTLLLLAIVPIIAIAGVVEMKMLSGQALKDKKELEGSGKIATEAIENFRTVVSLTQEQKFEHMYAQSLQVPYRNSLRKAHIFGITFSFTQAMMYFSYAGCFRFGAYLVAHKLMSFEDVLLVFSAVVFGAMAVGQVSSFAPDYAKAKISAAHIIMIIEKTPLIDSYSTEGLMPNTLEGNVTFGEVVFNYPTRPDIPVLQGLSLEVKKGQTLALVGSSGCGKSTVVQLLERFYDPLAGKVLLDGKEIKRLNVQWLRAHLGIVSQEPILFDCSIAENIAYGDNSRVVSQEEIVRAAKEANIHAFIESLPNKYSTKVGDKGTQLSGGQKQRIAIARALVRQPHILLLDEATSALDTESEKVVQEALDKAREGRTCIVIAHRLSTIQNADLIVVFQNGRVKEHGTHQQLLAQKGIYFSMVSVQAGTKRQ

Nc1ccn([C@@H]2O[C@H](CO)[C@@H](O)C2(F)F)c(=O)n1 [gemcitabine]
PD-1 and CD4 mRNA level [1]: not significantly higher
median overall survival (PDAC; MPACT Phase III clinical trial): 6.6 months
median overall survival (PDAC; randomized Phase III trial, gemcitabine versus 5-FU): 5.65 months

CC/C=C\C/C=C\C/C=C\C/C=C\C/C=C\C/C=C\CCC(=O)O[C@@H](C(=O)O[C@H]1C[C@@]2(O)[C@@H](OC(=O)c3ccccc3)[C@@H]3[C@]4(OC(C)=O)CO[C@@H]4C[C@H](O)[C@@]3(C)C(=O)[C@H](OC(=O)C3CC3)C(=C1C)C2(C)C)[C@H](C=C(C)C)NC(=O)OC(C)(C)C [DHA-SBT-1214, Docosahexaenoic acid conjugate of SBT-1214]
toxic deaths ([2]; 300 mg/kg total dose): one toxic death
complete responses (CRs) ([2]; PANC-1 xenograft): achieved CRs and essentially were cured
tumor growth delay ([2]; both schedules (q7d×3 and q3d×3)): > 90 days
MTD ([2]; total dosage (80 mg/kg×3 inj)): 240 mg/kg
cell death (prostate CD133+ cells; 0.1-1 μM): 80-90%
expression of pro-apoptotic proteins p53 and p21 (prostate CD133+ cells; previously absent expression): significant up-regulation
efficacy [3]: remarkable efficacy
potency higher than those of paclitaxel and docetaxel [4]: two-to-three
substrate for MDR mechanisms such as P-gp over-expression [5]: not a substrate
increase in drug concentration in omega-3 fatty acid based nanoemulsion by DHA conjugation [6]: 5 fold
stability ([6]; in Solutol-HS15): less than 24 hours
formulated drug concentration ([6]; in Tween 80 or Solutol-HS15): 6 mg/mL
